Source: article PMC8344253, “Identifying requirements for RSK2 specific inhibitors” (Journal of Enzyme Inhibition and Medicinal Chemistry, 2021)

Columns and labels:
247 kinases = system: 247 kinases; parameters: method as in PMID 27528706; conditions: representatives from all kinase families; cited from earlier work
RSK2 [1] = target: T1, RSK2 (Homo sapiens, UniProt P51812); assay: ELISA kinase activity assay, RSK2; type: biochemical; conditions: for IC50: 10 μM ATP, 30 min reaction; for % Uninhibited kinase at 30 μM: 30 μM inhibitor
T1 sequence (P51812 whole entry, the tested form may be a part): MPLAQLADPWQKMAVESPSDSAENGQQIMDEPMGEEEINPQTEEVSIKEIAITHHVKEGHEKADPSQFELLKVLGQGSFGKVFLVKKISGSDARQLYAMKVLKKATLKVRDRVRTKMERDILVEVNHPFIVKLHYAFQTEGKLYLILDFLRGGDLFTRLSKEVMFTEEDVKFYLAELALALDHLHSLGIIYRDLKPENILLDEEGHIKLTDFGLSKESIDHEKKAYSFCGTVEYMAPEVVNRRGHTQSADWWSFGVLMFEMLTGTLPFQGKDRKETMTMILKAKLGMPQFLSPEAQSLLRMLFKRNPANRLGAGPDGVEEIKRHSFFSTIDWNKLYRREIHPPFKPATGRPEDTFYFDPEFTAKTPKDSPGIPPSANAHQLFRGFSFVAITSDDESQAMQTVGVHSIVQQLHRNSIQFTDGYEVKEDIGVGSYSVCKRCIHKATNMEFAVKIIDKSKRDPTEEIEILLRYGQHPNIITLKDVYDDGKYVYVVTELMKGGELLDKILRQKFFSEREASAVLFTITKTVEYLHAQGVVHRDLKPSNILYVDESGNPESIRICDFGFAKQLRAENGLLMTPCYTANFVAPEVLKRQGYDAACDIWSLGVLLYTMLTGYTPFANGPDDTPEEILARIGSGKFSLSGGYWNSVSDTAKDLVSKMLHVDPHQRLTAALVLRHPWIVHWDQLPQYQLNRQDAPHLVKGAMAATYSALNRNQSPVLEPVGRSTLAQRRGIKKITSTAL
Method: The activity of RSK2 was measured as previously reported. Briefly, 1 nM kinase, inhibitor or vehicle (1% DMSO), and 10 μM ATP in kinase buffer were dispensed into the wells of a 96-well plate with adsorbed glutathione S-transferase fusion protein containing the sequence […]. The reaction was stopped after 30 min, during the linear phase, with the addition of equal volume 500 mM EDTA, then phosphorylated peptide was measured by ELISA. Luminescence from wells with EDTA added before ATP was subtracted, then luminescence was normalised to the average vehicle luminescence. […] After 2 h incubation, the kinase/inhibitor mix was diluted 100-fold in kinase buffer. […] The reaction was stopped at the time indicated in the figures with the addition of EDTA, and amount of phosphorylated peptide was measured by ELISA.
(§1) Hill slope and IC50 were unconstrained. […] Statistical significance is considered using α = 0.01.

RSK2 [2] = target: T1, RSK2; assay: FRET kinase binding assay (LanthaScreen Eu Kinase Binding Assay), full-length RSK2; conditions: for % Uninhibited kinase at 30 μM: 30 μM inhibitor; for IC50: 15 nM tracer; for Relative Off-Rate: slope of change in IC50 over time after 2 h pre-incubation, log-log fit
Method: (§2) Normalised EMR was calculated in MATLAB (Mathworks).
as §1

RSK1/2 = conditions: cell-based assay; cited from earlier work
RSK1 [3] = target: T2, RSK1 (Homo sapiens, UniProt Q15418); assay: ELISA dilution reaction (100-fold dilution after 2 h pre-incubation), RSK1; type: biochemical; conditions: 4 h after 100-fold dilution
T2 sequence (Q15418 whole entry): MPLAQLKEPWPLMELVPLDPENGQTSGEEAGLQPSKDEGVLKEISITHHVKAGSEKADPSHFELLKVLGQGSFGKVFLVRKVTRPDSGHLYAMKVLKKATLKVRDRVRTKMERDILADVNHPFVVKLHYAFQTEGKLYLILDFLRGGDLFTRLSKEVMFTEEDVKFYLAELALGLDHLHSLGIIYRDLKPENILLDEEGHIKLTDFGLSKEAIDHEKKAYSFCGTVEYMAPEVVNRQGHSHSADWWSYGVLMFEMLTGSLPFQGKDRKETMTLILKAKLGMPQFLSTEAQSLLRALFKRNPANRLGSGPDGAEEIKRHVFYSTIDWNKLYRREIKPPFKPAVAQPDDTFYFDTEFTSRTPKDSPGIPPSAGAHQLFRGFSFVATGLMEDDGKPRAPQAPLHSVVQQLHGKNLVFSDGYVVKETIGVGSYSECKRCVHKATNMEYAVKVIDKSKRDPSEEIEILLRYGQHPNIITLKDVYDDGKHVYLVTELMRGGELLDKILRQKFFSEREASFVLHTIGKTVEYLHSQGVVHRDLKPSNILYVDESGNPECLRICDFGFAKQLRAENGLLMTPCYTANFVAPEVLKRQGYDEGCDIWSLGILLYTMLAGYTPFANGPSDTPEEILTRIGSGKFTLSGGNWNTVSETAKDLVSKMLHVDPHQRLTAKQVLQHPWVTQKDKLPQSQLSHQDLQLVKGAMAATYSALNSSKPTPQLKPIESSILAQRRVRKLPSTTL

RSK1 [4] = target: T2, RSK1; assay: FRET kinase binding assay, RSK1; conditions: for % Uninhibited kinase at 30 μM: 30 μM inhibitor
Method: as §2, §1
The results from the pre-incubation experiments provide an indirect measure of the inhibitor off rate whereas the simultaneous addition of inhibitor and tracer provide an indirect measure of the inhibitor on rate. […] The mechanism that accounts for the unique properties of RSK2 interacting with 1c are unknown.

RSK2 [5] = target: T1, RSK2; assay: ELISA dilution reaction (100-fold dilution after 2 h pre-incubation), RSK2; type: biochemical
Method: The activity of RSK2 was measured as previously reported. Briefly, 1 nM kinase, inhibitor or vehicle (1% DMSO), and 10 μM ATP in kinase buffer were dispensed into the wells of a 96-well plate with adsorbed glutathione S-transferase fusion protein containing the sequence […]. The reaction was stopped after 30 min, during the linear phase, with the addition of equal volume 500 mM EDTA, then phosphorylated peptide was measured by ELISA. Luminescence from wells with EDTA added before ATP was subtracted, then luminescence was normalised to the average vehicle luminescence. […] After 2 h incubation, the kinase/inhibitor mix was diluted 100-fold in kinase buffer. […] After the dilution, kinase/inhibitor solution and 3.3 μM ATP in kinase buffer were mixed to initiate the reaction. The reaction was stopped at the time indicated in the figures with the addition of EDTA, and amount of phosphorylated peptide was measured by ELISA.
To further analyse the stability of RSK2 with 1c the ELISA assay was used as an orthogonal approach. […] Inhibition of kinase activity was measured at differing time points and compared to that obtained with a concentration of inhibitor equal to the concentration after dilution. […]
Figure 6. […] After dilution, ATP was added and the reaction proceeded for the times indicated, then the reaction was stopped with EDTA and the amount of phosphorylated substrate was measured by ELISA. […]

RSK2 NTKD = target: T3, RSK2 NTKD (Homo sapiens, UniProt P51812); assay: FRET kinase binding assay, isolated RSK2 NTKD; conditions: for % Uninhibited kinase at 30 μM: 30 μM inhibitor
T3 construct: domain, containing residues 1–389; made in house
T3 sequence (P51812 1-389): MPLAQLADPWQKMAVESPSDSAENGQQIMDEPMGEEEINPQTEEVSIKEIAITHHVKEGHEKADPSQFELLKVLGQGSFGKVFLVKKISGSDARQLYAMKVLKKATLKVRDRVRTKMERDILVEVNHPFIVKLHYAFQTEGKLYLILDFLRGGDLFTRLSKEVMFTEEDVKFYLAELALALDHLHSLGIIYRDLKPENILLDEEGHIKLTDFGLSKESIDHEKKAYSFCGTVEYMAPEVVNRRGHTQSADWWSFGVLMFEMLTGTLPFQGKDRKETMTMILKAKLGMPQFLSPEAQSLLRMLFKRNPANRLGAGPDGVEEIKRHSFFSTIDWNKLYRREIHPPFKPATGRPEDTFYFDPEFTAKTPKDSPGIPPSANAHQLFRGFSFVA
Method: as §2
Recombinant baculoviruses were generated by the Gateway cloning using the BaculoDirect Baculovirus Expression System (Invitrogen) according to the manufacturer's manual.The cDNA for RSK2 NTKD was amplified by conventional PCR, then cloned into pENTR-D-TOPO (pENTR Directional TOPO Cloning Kits, Invitrogen). The resulting Gateway Entry vectors were used for making the baculoviruses in the same way as RSK1 and RSK2 WT viruses. These constructs have 6xHis sequence in their C-termini and recombinant proteins were purified by Ni-NTA Agarose (Qiagen).
as §1

RSK3 = RSK3 (Homo sapiens, UniProt Q15349); assay: FRET kinase binding assay, GST-tagged RSK3
Sequence of RSK3 (Q15349 whole entry, species assumed): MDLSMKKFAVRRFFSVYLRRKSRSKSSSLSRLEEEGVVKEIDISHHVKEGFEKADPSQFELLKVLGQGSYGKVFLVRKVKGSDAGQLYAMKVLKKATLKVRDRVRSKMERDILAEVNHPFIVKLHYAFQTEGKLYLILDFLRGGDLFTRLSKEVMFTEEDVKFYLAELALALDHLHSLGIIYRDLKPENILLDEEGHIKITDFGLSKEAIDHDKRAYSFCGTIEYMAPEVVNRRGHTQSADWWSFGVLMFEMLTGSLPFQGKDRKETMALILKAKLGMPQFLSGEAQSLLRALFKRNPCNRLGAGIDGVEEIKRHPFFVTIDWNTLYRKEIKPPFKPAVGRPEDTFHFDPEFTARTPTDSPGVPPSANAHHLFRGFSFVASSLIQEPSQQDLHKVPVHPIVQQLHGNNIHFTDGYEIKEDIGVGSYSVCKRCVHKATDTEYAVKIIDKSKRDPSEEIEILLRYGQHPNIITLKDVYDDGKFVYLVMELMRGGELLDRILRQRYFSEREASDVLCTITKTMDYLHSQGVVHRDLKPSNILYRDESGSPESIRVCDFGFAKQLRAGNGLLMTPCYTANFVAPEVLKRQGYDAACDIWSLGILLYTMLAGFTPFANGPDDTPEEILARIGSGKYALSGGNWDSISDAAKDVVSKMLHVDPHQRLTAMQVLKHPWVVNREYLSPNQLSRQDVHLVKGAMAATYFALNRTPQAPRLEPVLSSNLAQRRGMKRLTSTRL
Method: (§3) For RSK1 and RSK2 NTKD, 2 nM Eu Streptavidin and 2 nM Biotin anti-His antibody (Invitrogen) and for RSK3/4, 2 nM Eu anti-GST antibody (Invitrogen) were used in place of the Eu anti-His antibody. […] The corresponding average EMR of wells without inhibitor or kinase was subtracted, and background-subtracted EMR was normalised to average vehicle control. Normalised EMR was calculated in MATLAB (Mathworks).
(§4) Hill slope and IC50 were unconstrained. […] Curve fitting and statistics were calculated in Prism 9.0.2 (Graphpad). Statistical significance is considered using α = 0.01.
(§5) This assay uses an ATP-mimetic tracer labelled with an acceptor fluorophore and a recombinant His-tagged kinase, which is indirectly labelled with a europium donor chelated to an anti-His antibody. Interaction of the tracer with the kinase generates a FRET signal. […] GST-tagged RSK3 and RSK4 were purchased and tested with a labelled anti-GST antibody in the FRET assay.

RSK1 [6] = target: T2, RSK1; assay: ELISA kinase activity assay, RSK1; type: biochemical; conditions: RSK1, 2 h pre-incubation
RSK4 = RSK4 (Homo sapiens, UniProt Q9UK32); assay: FRET kinase binding assay, GST-tagged RSK4
Sequence of RSK4 (Q9UK32 whole entry, species assumed): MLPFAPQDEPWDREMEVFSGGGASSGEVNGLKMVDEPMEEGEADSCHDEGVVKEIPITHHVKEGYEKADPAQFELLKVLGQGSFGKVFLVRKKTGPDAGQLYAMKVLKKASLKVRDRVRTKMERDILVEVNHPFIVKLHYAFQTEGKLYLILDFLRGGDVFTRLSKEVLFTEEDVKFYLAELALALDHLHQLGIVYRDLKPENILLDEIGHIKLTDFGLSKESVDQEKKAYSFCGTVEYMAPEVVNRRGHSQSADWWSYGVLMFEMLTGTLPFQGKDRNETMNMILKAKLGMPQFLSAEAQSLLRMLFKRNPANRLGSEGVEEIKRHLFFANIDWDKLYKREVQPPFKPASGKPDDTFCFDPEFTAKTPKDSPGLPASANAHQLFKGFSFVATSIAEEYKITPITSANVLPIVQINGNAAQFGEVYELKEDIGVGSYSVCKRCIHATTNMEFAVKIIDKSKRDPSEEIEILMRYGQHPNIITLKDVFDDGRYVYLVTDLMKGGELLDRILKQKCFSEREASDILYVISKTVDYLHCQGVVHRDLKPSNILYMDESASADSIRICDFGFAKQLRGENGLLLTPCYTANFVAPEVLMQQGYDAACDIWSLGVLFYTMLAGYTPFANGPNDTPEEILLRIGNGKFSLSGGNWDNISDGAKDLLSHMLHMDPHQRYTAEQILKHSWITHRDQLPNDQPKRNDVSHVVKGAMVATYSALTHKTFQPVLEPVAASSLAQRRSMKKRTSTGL
Method: as §3, §4, §5

[7] = FRET, RSK2, 5 min kinase-inhibitor incubation
[8] = FRET, RSK2, 2 h kinase-inhibitor incubation before tracer

In the case of `CCCC1CC(Oc2c(-c3ccc(O)cc3)oc3cc(O)cc(O)c3c2=O)C(O)C(OC(C)=O)C1OC(C)=O` (stereo not drawn) [Inhibitor 1b, C5”-n-propyl cyclitol SL0101], the “Specificity in screen of 247 kinases” value (247 kinases) is listed as “primarily targeted RSK1/2”, the IC50 (RSK2 [1]; RSK2, 2 h pre-incubation) is listed as 0.183 µM and the “% Uninhibited kinase at 30 μM” value (RSK2 [1]; RSK2, 2 h pre-incubation) is listed as 15.7%. The “% Uninhibited kinase at 30 μM” value (RSK2 [2]; FRET, RSK2, 5 min incubation) was 49.7%, the IC50 (RSK2 [2]; [7]) was 24.1 µM and the “% Uninhibited kinase at 30 μM” value (RSK2 [2]; FRET, RSK2, 2 h incubation) was 1.3%. The IC50 (RSK2 [2]; [8]) was 0.215 µM, the “Relative Off-Rate” value (RSK2 [2]; RSK2) was 0.601 log10(nM/min) and the “Inhibition of proliferation when RSK1/2 silenced” value (RSK1/2) was “ineffective”.
For `CCCNC(=O)O[C@@H]1[C@@H](OC(C)=O)[C@@H](O)[C@H](Oc2c(-c3ccc(O)cc3)oc3cc(O)cc(O)c3c2=O)O[C@H]1CCC` [Inhibitor 1c, (2 s,3R,4S,5S,6S)-2-((5,7-dihydroxy-2–(4-hydroxyphenyl)-4-oxo-4H-chromen-3-yl)oxy)-3-hydroxy-6-propyl-5-((propylcarbamoyl)oxy)tetrahydro-2H-pyran-4-yl acetate], the “Inhibition of RSK1 after the dilution” value (RSK1 [3]) was “not inhibited”, the IC50 (RSK1 [4]; FRET, RSK1, 2 h incubation) was 0.0128 µM and the “% Uninhibited kinase at 30 μM” value (RSK1 [4]; FRET, RSK1, 2 h incubation) was 6.1%. For the same compound, the Relative on-rate (RSK1 [4]; RSK1, change in IC50 over time, tracer added simultaneously with inhibitor) was −0.719 log10(nM/min), the “Off: On Ratio” value (RSK1 [4]; RSK1, ratio of absolute value of relative off-rate to on-rate) was 0.25 and the “Relative Off-Rate” value (RSK1 [4]; RSK1, slope of change in IC50 over time after 2 h pre-incubation, log-log fit) was 0.176 log10(nM/min). The inhibition at 1.5 µM (RSK2 [5]; over a 12 h time course after 100-fold dilution, 100 nM RSK2 pre-incubated 2 h with 1.5 μM 1c) was about 50%, the IC50 (RSK2 NTKD; 2 h incubation) was 0.012 µM and the “% Uninhibited kinase at 30 μM” value (RSK2 NTKD; 2 h incubation) was 11.1%. For the same compound, the IC50 (RSK2 [1]; RSK2, 2 h pre-incubation) was 0.0847 µM, the “% Uninhibited kinase at 30 μM” value (RSK2 [1]; RSK2, 2 h pre-incubation) was 9.4% and the “% Uninhibited kinase at 30 μM” value (RSK2 [2]; FRET, RSK2, 5 min incubation) was 26.2%. For the same compound, the IC50 (RSK2 [2]; [7]) was 6.4 µM, the “Inhibition at 8-fold higher concentration than the IC50” value (RSK2 [2]; FRET, RSK2, 5 min pre-incubation) was 75% and the “% Uninhibited kinase at 30 μM” value (RSK2 [2]; FRET, RSK2, 2 h incubation) was 0.3%. The IC50 (RSK2 [2]; [8]) was 0.0374 µM, the “Off rate lower than that of 1d, 1e, and 1f” value (RSK2 [2]; RSK2, relative off-rate comparison) was “more than three-fold” and the Relative on-rate (RSK2 [2]; RSK2, change in IC50 over time, tracer added simultaneously with inhibitor) was −1.204 log10(nM/min). The “Off: On Ratio” value (RSK2 [2]; RSK2, ratio of absolute value of relative off-rate to on-rate) was 0.10 and the “Relative Off-Rate” value (RSK2 [2]; RSK2) was 0.126 log10(nM/min).
With `CCCNC(=O)OC1C(CCC)CC(Oc2c(-c3ccc(O)cc3)oc3cc(O)cc(O)c3c2=O)C(O)C1OC(C)=O` (stereo not drawn) [Inhibitor 1d] the IC50 (RSK2 [1]; RSK2, 2 h pre-incubation) was 0.0741 µM, the “% Uninhibited kinase at 30 μM” value (RSK2 [1]; RSK2, 2 h pre-incubation) was 11.1% and the “% Uninhibited kinase at 30 μM” value (RSK2 [2]; FRET, RSK2, 2 h incubation) was 0.5%. For the same compound, the IC50 (RSK2 [2]; [8]) was 0.0263 µM and the “Relative Off-Rate” value (RSK2 [2]; RSK2) was 0.548 log10(nM/min).
In the case of `CCCNC(=O)O[C@@H]1[C@@H](OC(=O)NCCC)[C@@H](O)[C@H](Oc2c(-c3ccc(O)cc3)oc3cc(O)cc(O)c3c2=O)O[C@H]1CCC` [Inhibitor 1e, (2 s,3S,4S,5R,6S)-6-((5,7-dihydroxy-2–(4-hydroxyphenyl)-4-oxo-4H-chromen-3-yl)oxy)-5-hydroxy-2-propyltetrahydro-2H-pyran-3,4-diyl bis(n-propylcarbamate)], the melting point is reported as 158 to 160 °C, the “% Uninhibited kinase at 30 μM” value (RSK2 [2]; FRET, RSK2, 2 h incubation) is reported as 0.8% and the IC50 (RSK2 [2]; [8]) is reported as 0.0837 µM. The “Relative Off-Rate” value (RSK2 [2]; RSK2) was 0.417 log10(nM/min).
For `CCCNC(=O)OC1C(CCC)CC(Oc2c(-c3ccc(O)cc3)oc3cc(O)cc(O)c3c2=O)C(O)C1OC(=O)NCCC` (stereo not drawn) [Inhibitor 1f], the “% Uninhibited kinase at 30 μM” value (RSK2 [2]; FRET, RSK2, 2 h incubation) was 1.3%, the IC50 (RSK2 [2]; [8]) was 0.0909 µM and the “Relative Off-Rate” value (RSK2 [2]; RSK2) was 0.630 log10(nM/min).
In the case of `CC(=O)OC1C(C)OC(Oc2c(-c3ccc(O)cc3)oc3cc(O)cc(O)c3c2=O)C(O)C1OC(C)=O` (stereo not drawn) [SL0101, reference compound], the “Inhibition of RSK3” value (RSK3; 2 h incubation) is reported as “did not inhibit”, the “% Uninhibited kinase at 30 μM” value (RSK3; RSK3, 2 h incubation, 30 μM inhibitor) is reported as 90.3% and the IC50 (RSK1 [4]; FRET, RSK1, 5 min incubation) is reported as 0.774 µM. For the same compound, the “Inhibition after 5 min incubation” value (RSK1 [4]; FRET, RSK1, 5 min incubation) was 80%, the “% Uninhibited kinase at 30 μM” value (RSK1 [4]; FRET, RSK1, 5 min incubation) was 19.2% and the IC50 (RSK1 [4]; FRET, RSK1, 2 h incubation) was 0.193 µM. The “% Uninhibited kinase at 30 μM” value (RSK1 [4]; FRET, RSK1, 2 h incubation) was 16.7%, the IC50 (RSK1 [6]) was 0.0707 µM and the “% Uninhibited kinase at 30 μM” value (RSK1 [6]; 30 μM inhibitor) was 3.9%. The “Inhibition of RSK4” value (RSK4; 2 h incubation) was “did not inhibit”, the “% Uninhibited kinase at 30 μM” value (RSK4; RSK4, 2 h incubation, 30 μM inhibitor) was 70.9% and the “Inhibition of RSK2 after the dilution” value (RSK2 [5]; 4 h after 100-fold dilution, 100 nM RSK2 pre-incubated 2 h with 5 μM SL0101) was “unable to inhibit”. The “Increase in IC50 with 5 min vs 2 h incubation” value (RSK2 NTKD) was “two-fold”, the “Inhibition after 5 min incubation” value (RSK2 NTKD; 5 min incubation) was about 80% and the “% Uninhibited kinase at 30 μM” value (RSK2 NTKD; 5 min incubation) was 20.1%. The “% Uninhibited kinase at 30 μM” value (RSK2 NTKD; 2 h incubation) was 11.5%, the “Increase in IC50 with 5 min vs 2 h pre-incubation” value (RSK2 [1]; RSK2) was “two-fold” and the “% Uninhibited kinase at 30 μM” value (RSK2 [1]; RSK2, 5 min pre-incubation) was 31.6%. For the same compound, the “% Uninhibited kinase at 30 μM” value (RSK2 [1]; RSK2, 2 h pre-incubation) was 13.9%, the “Inhibition after 5 min incubation” value (RSK2 [2]; FRET, RSK2, 5 min incubation) was about 50% and the “% Uninhibited kinase at 30 μM” value (RSK2 [2]; FRET, RSK2, 5 min incubation) was 45.7%. The “% Uninhibited kinase at 30 μM” value (RSK2 [2]; FRET, RSK2, 2 h incubation) was 4.3%.
